Source: US20160159789A1, “SUBSTITUTED PYRAZOLOPYRIDINES” (BAYER PHARMA AKTIENGESELLSCHAFT, priority 2013, published 2016)

Molecular target: T1, human full-length MKNK1 (Homo sapiens, UniProt Q9BUB5, T385D)
T1 construct: purchased Carna Biosciences 02-145; host or cells: insect cells (baculovirus expression system)
Assay: MKNK1 kinase high ATP assay (TR-FRET)
Type: biochemical
Settings: high ATP (2 mM final), 15 min preincubation with enzyme, GST-MKNK1 (T344D)
Protocol: MKNK1-inhibitory activity at high ATP of compounds of the present invention after their preincubation with MKNK1 was quantified employing the TR-FRET-based MKNK1 high ATP assay as described in the following paragraphs.
A recombinant fusion protein of Glutathione-S-Transferase (GST, N-terminally) and human full-length MKNK1 (amino acids 1-424 and T344D of accession number BAA 19885.1), expressed in insect cells using baculovirus expression system and purified via glutathione sepharose affinity chromatography, was purchased from Carna Biosciences (product no 02-145) and used as enzyme. As substrate for the kinase reaction the biotinylated peptide biotin-Ahx-IKKRKLTRRKSLKG (C-terminus in amide form) was used, which can be purchased e.g. from the company Biosyntan (Berlin-Buch, Germany).
For the assay 50 nL of a 100 fold concentrated solution of the test compound in DMSO was pipetted into a black low volume 384 well microtiter plate (Greiner Bio-One, Frickenhausen, Germany), 2 μL of a solution of MKNK1 in aqueous assay buffer [50 mM HEPES pH 7.5, 5 mM MgCl2, 1.0 mM dithiothreitol, 0.005% (v/v) Nonidet-P40 (Sigma)] was added and the mixture was incubated for 15 min at 22° C. to allow pre-binding of the test compounds to the enzyme before the start of the kinase reaction. Then the kinase reaction was started by the addition of 3 μL of a solution of adenosine-tri-phosphate (ATP, 3.3 mM=> final conc. in the 5 μL assay volume is 2 mM) and substrate (0.1 μM=> final conc. in the 5 μL assay volume is 0.06 μM) in assay buffer and the resulting mixture was incubated for a reaction time of 30 min at 22° C. The concentration of MKNK1 was adjusted depending of the activity of the enzyme lot and was chosen appropriate to have the assay in the linear range, typical concentrations were in the range of 0.003 μg/mL. The reaction was stopped by the addition of 5 μL of a solution of TR-FRET detection reagents (5 nM streptavidine-XL665 [Cisbio Bioassays, Codolet, France] and 1 nM anti-ribosomal protein S6 (pSer236)-antibody from Invitrogen [#44921G] and 1 nM LANCE EU-W1024 labeled ProteinG [Perkin-Elmer, product no. AD0071]) in an aqueous EDTA-solution (100 mM EDTA, 0.1% (w/v) bovine serum albumin in 50 mM HEPES pH 7.5).
The resulting mixture was incubated for 1 h at 22° C. to allow the formation of complex between the phosphorylated biotinylated peptide and the detection reagents. Subsequently the amount of phosphorylated substrate was evaluated by measurement of the resonance energy transfer from the Eu-chelate to the streptavidine-XL. Therefore, the fluorescence emissions at 620 nm and 665 nm after excitation at 350 nm were measured in a TR-FRET reader, e.g. a Rubystar (BMG Labtechnologies, Offenburg, Germany) or a Viewlux (Perkin-Elmer). The ratio of the emissions at 665 nm and at […] was taken as the measure for the amount of phosphorylated substrate. The data were normalised (enzyme reaction without inhibitor=0% inhibition, all other assay components but no enzyme=100% inhibition).

T1 sequence (Q9BUB5 1-424 isoform Q9BUB5-2 T344D): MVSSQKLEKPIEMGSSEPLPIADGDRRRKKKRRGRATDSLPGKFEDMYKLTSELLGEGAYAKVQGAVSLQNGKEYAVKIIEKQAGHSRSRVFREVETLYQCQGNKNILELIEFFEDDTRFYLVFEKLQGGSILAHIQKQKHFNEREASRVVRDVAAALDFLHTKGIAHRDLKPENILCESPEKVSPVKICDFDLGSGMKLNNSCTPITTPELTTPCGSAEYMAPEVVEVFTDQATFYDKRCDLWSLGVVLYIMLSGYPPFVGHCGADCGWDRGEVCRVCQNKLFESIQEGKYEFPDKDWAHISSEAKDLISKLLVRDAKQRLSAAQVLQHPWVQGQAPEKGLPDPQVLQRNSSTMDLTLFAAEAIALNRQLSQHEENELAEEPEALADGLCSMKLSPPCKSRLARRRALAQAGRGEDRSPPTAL

SMILES | IC50
O=C(c1cc2c(Nc3cc4cn[nH]c4cn3)ncnc2[nH]1)N1CCOCC1 [Example 21, Morpholin-4-yl[4-(1H-pyrazolo[3,4-c]pyridin-5-ylamino)-7H-pyrrolo[2,3-d]pyrimidin-6-yl]methanone] | 4.2 nM
CN(C)CCNC(=O)c1cc2c(Nc3cc4cn[nH]c4cn3)ncnc2[nH]1 [Example 22, N-[2-(Dimethylamino)ethyl]-4-(1H-pyrazolo[3,4-c]pyridin-5-ylamino)-7H-pyrrolo[2,3-d]pyrimidine-6-carboxamide] | 5.4 nM
CCN(C(=O)[C@H]1CCc2c(sc3ncnc(Nc4cc5cn[nH]c5cn4)c23)C1)C(C)C [Example 46, (7S)—N-Ethyl-N-(propan-2-yl)-4-(1H-pyrazolo[3,4-c]pyridin-5-ylamino)-5,6,7,8-tetrahydro[1]benzothieno[2,3-d]pyrimidine-7-carboxamide] | 4.9 nM
CN(CC(C)(C)O)C(=O)[C@H]1CCc2c(sc3ncnc(Nc4cc5cn[nH]c5cn4)c23)C1 [Example 47, (7S)—N-(2-Hydroxy-2-methylpropyl)-N-methyl-4-(1H-pyrazolo[3,4-c]pyridin-5-ylamino)-5,6,7,8-tetrahydro[1]benzothieno[2,3-d]pyrimidine-7-carboxamide] | 11.1 nM
CN(CCC(F)(F)F)C(=O)[C@H]1CCc2c(sc3ncnc(Nc4cc5cn[nH]c5cn4)c23)C1 [Example 48, (7S)—N-Methyl-4-(1H-pyrazolo[3,4-c]pyridin-5-ylamino)-N-(3,3,3-trifluoropropyl)-5,6,7,8-tetrahydro[1]benzothieno[2,3-d]pyrimidine-7-carboxamide] | 6.2 nM
CCCN(CCOC)C(=O)[C@H]1CCc2c(sc3ncnc(Nc4cc5cn[nH]c5nc4OC)c23)C1 [Example 49, (7S)—N-(2-Methoxyethyl)-4-[(6-methoxy-1H-pyrazolo[3,4-b]pyridin-5-yl)amino]-N-propyl-5,6,7,8-tetrahydro[1]benzothieno[2,3-d]pyrimidine-7-carboxamide] | 0.3 nM
CCCN(CCOC)C(=O)[C@H]1CCc2c(sc3ncnc(Nc4cc5cn[nH]c5nc4O)c23)C1 [Example 50, (7S)-4-[(6-Hydroxy-1H-pyrazolo[3,4-b]pyridin-5-yl)amino]-N-(2-methoxyethyl)-N-propyl-5,6,7,8-tetrahydro[1]benzothieno[2,3-d]pyrimidine-7-carboxamide] | 2.6 nM
CCCCN(C)C(=O)[C@H]1CCc2c(sc3ncnc(Nc4cc5cn[nH]c5nc4OC)c23)C1 [Example 51, (7S)—N—Butyl-4-[(6-methoxy-1H-pyrazolo[3,4-b]pyridin-5-yl)amino]-N-methyl-5,6,7,8-tetrahydro[1]benzothieno[2,3-d]pyrimidine-7-carboxamide] | 0.5 nM
CCCCN(C)C(=O)[C@H]1CCc2c(sc3ncnc(Nc4cc5cn[nH]c5nc4O)c23)C1 [Example 52, (7S)—N-Butyl-4-[(6-hydroxy-1H-pyrazolo[3,4-b]pyridin-5-yl)amino]-N-methyl-5,6,7,8-tetrahydro[1]benzothieno[2,3-d]pyrimidine-7-carboxamide] | 6 nM
CN(C)C(=O)[C@H]1CCc2c(sc3ncnc(Nc4cc5cn[nH]c5nc4O)c23)C1 [Example 54, (7S)-4-[(6-Hydroxy-1H-pyrazolo[3,4-b]pyridin-5-yl)amino]-N,N-dimethyl-5,6,7,8-tetrahydro[1]benzothieno[2,3-d]pyrimidine-7-carboxamide] | 6.9 nM
O=C([C@H]1CCc2c(sc3ncnc(Nc4cc5cn[nH]c5cn4)c23)C1)N1CCC1 [Example 55, Azetidin-1-yl[(7S)-4-(1H-pyrazolo[3,4-c]pyridin-5-ylamino)-5,6,7,8-tetrahydro[1]benzothieno[2,3-d]pyrimidin-7-yl]methanone] | 9.7 nM
COCCN(CCOC)C(=O)[C@H]1CCc2c(sc3ncnc(Nc4cc5cn[nH]c5cn4)c23)C1 [Example 56, (7S)—N, N-Bis(2-methoxyethyl)-4-(1H-pyrazolo[3,4-c]pyridin-5-ylamino)-5,6,7,8-tetrahydro[1]benzothieno[2,3-d]pyrimidine-7-carboxamide] | 8.1 nM
COCCN(C)C(=O)[C@H]1CCc2c(sc3ncnc(Nc4cc5cn[nH]c5cn4)c23)C1 [Example 57, (7S)—N-(2-Methoxyethyl)-N-methyl-4-(1H-pyrazolo[3,4-c]pyridin-5-ylamino)-5,6,7,8-tetrahydro[1]benzothieno[2,3-d]pyrimidine-7-carboxamide] | 15 nM
CCN(C)C(=O)[C@H]1CCc2c(sc3ncnc(Nc4cc5cn[nH]c5cn4)c23)C1 [Example 58, (7S)—N-Ethyl-N-methyl-4-(1H-pyrazolo[3,4-c]pyridin-5-ylamino)-5,6,7,8-tetrahydro[1]benzothieno[2,3-d]pyrimidine-7-carboxamide] | 17.3 nM

Other lines, results leading:

IC50 | SMILES
2.5 nM | COc1nc2[nH]ncc2cc1Nc1ncnc2sc3c(c12)CC[C@H](C(=O)N1CCOCC1)C3 [Example 34]
2.2 nM | COc1nc2[nH]ncc2cc1Nc1ncnc2sc3c(c12)CC[C@H](C(=O)N1CCC1)C3 [Example 35, Azetidin-1-yl{(7S)-4-[(6-methoxy-1H-pyrazolo[3,4-b]pyridin-5-yl)amino]-5,6,7,8-tetrahydro[1]benzothieno[2,3-d]pyrimidin-7-yl}methanone]
0.8 nM | COc1nc2[nH]ncc2cc1Nc1ncnc2sc3c(c12)CC[C@H](C(=O)N1C[C@@H](C)O[C@@H](C)C1)C3 [Example 36, [(2R,6S)-2,6-Dimethylmorpholin-4-yl]{(7S)-4-[(6-methoxy-1H-pyrazolo[3,4-b]pyridin-5-yl)amino]-5,6,7,8-tetrahydro[1]benzothieno[2,3-d]pyrimidin-7-yl}methanone]
4.2 nM | COc1nc2[nH]ncc2cc1Nc1ncnc2sc3c(c12)CC[C@H](C(=O)N(C)C(C)C)C3 [Example 37, (7S)-4-[(6-Methoxy-1H-pyrazolo[3,4-b]pyridin-5-yl)amino]-N-methyl-N-(propan-2-yl)-5,6,7,8-tetrahydro[1]benzothieno[2,3-d]pyrimidine-7-carboxamide]
1.4 nM | CCCN(C)C(=O)[C@H]1CCc2c(sc3ncnc(Nc4cc5cn[nH]c5nc4OC)c23)C1 [Example 38, (7S)-4-[(6-Methoxy-1H-pyrazolo[3,4-b]pyridin-5-yl)amino]-N-methyl-N-propyl-5,6,7,8-tetrahydro[1]benzothieno[2,3-d]pyrimidine-7-carboxamide]
1 nM | CCN(C)C(=O)[C@H]1CCc2c(sc3ncnc(Nc4cc5cn[nH]c5nc4OC)c23)C1 [Example 39, (7S)—N-Ethyl-4-[(6-methoxy-1H-pyrazolo[3,4-b]pyridin-5-yl)amino]-N-methyl-5,6,7,8-tetrahydro[1]benzothieno[2,3-d]pyrimidine-7-carboxamide]
2.5 nM | COc1nc2[nH]ncc2cc1Nc1ncnc2sc3c(c12)CC[C@H](C(=O)N1C[C@@H]2C[C@H]1CO2)C3 [Example 40]
1.6 nM | COc1nc2[nH]ncc2cc1Nc1ncnc2sc3c(c12)CC[C@H](C(=O)N1C[C@H]2C[C@@H]1CO2)C3 [Example 41]
2.1 nM | COc1nc2[nH]ncc2cc1Nc1ncnc2sc3c(c12)CC[C@H](C(=O)N1CCN(C)CC1)C3 [Example 42]
1.6 nM | COc1nc2[nH]ncc2cc1Nc1ncnc2sc3c(c12)CC[C@H](C(=O)N1CCC(N(C)C)CC1)C3 [Example 43, [4-(Dimethylamino)piperidin-1-yl]{(7S)-4-[(6-methoxy-1H-pyrazolo[3,4-b]pyridin-5-yl)amino]-5,6,7,8-tetrahydro[1]benzothieno[2,3-d]pyrimidin-7-yl}methanone]
0.9 nM | COc1nc2[nH]ncc2cc1Nc1ncnc2sc3c(c12)CC[C@H](C(=O)N1CCOC[C@H]1C)C3 [Example 44]
0.7 nM | COc1nc2[nH]ncc2cc1Nc1ncnc2sc3c(c12)CC[C@H](C(=O)N1CCOC[C@@H]1C)C3 [Example 45]
0.5 nM | COc1nc2[nH]ncc2cc1Nc1ncnc2sc3c(c12)CC[C@H](C(=O)N(C)C)C3 [Example 53, (7S)-4-[(6-Methoxy-1H-pyrazolo[3,4-b]pyridin-5-yl)amino]-N,N-dimethyl-5,6,7,8-tetrahydro[1]benzothieno[2,3-d]pyrimidine-7-carboxamide]
